Structures are written as SMILES.

For the data set, the system named is bile acids secreted in bile. The experiment in a line: Biliary bile acid composition during i.v. infusion (GC-MS). The conditions noted are these: for Further hydroxylation (in words): GC-MS of bile. In kind it is in vivo, Sprague-Dawley rats. On the procedure: Adult male Sprague-Dawley rats (body weight 200-230 g) were anesthetized by an intraperitoneal injection of pentobarbital (Nembutal, 7.5 mg/100 g body weight), and maintained under sedation by additional doses. The right jugular vein and the common bile duct were cannulated using PE-50 polyethylene tubing (Clay-Adams, Parsippany, N.J.). Body temperature was maintained throughout the experiment at 37° C. using a rectal probe and a thermostatically controlled heating pad (Harvard Apparatus Co., Inc., Millis, Mass.). Saline was infused at a rate of 1.0 ml/h using a Harvard pump (Harvard Apparatus Co., Inc.) into the jugular vein for a control period of 2h. After collecting two 10 minute bile samples for base-line analysis, the bile acids were individually infused intravenously (i.v.) for 30 minutes in stepwise increasing doses (0.5, 1.0, and 2.0 μmol/min/100 g body weight). Bile acid solutions were prepared in 3% human albumin in 0.45% saline. Six animals were used for each experiment and bile was collected every 10 minutes into preweighed tubes. At the end of the experiment, blood was obtained by cardiac puncture, and urine was obtained by aspiration of the bladder. All biological specimens were stored at -20° C. This animal study protocol (#1 B 10044) was approved by the Bioethics committee of the Children's Hospital Medical Center (Cincinnati, Ohio).
GC-MS was carried out on either a VG Autospec Q magnetic sector instrument or a Finnigan 4635 quadruple GC-MS-DS instrument housing identical GC columns and operated under the same chromatographic conditions. Electron ionization (70 eV) mass spectra were recorded over the mass range 50 to 1000 Da/e by repetitive scanning of the eluting components.
For the determination of hepatic biotransformation of the infused bile acid, bile collections from the six animal were pooled and biliary bile acids were determined by GC-MS after extraction, solvolysis, hydrolysis, and derivatization. Quantification of bile acids was achieved using GC, by comparing the peak height response of the individual bile acid with the peak height response obtained from the internal standard, nordeoxycholic acid added to the initial sample of bile. Identification of a bile acid was made on the basis of the retention index relative to a homologous series of n-alkanes, referred to as the methylene unit value (MU) and the fragmentation pattern of the mass spectrum was compared with authentic standards. A list of over 100 mass spectra of authentic bile acid standards and retention indices was recently compiled as a reference source (Lawson, A. M., et al, Mass spectrometry of bile acids, The Bile Acids, Vol. 4, Methods and Applications, pp. 167-267 (1988)).

For `C[C@H](CCC(=O)O)[C@H]1CC[C@H]2[C@@H]3[C@@H](OS(=O)(=O)O)C[C@@H]4C[C@H](O)CC[C@]4(C)[C@H]3CC[C@]12C` [UDCA-7S, ursodeoxycholic acid 7-sulfate], the “Further hydroxylation (in words)” value is “neither UDCA-7S nor UDCA-disulfatewere hydroxylated”. Besides, under “20-30 mins”, the “Relative % composition in bile: CA” value was determined as 20.2%, the “Relative % composition in bile: CDCA” value is 1.7%, the “Relative % composition in bile: DCA” value is on record as 2.3% and the “Relative % composition in bile: MCA” value is given as 1.3%. Where the note is “20-30 mins”, the “Relative % composition in bile: UDCA” value was determined as 61.3%, the “Relative % composition in bile: α-MCA” value is on record as 2.5% and the “Relative % composition in bile: β-MCA” value was 10.7%. Where the note is “50-60 mins”, the “Relative % composition in bile: CA” value amounted to 7.7%, the “Relative % composition in bile: CDCA” value was found to be 0.6%, the “Relative % composition in bile: DCA” value came to 0.7% and the “Relative % composition in bile: MCA” value is given as 0.6%. Also, where the note is “50-60 mins”, the “Relative % composition in bile: UDCA” value was determined as 83.6%, the “Relative % composition in bile: α-MCA” value was found to be 0.9% and the “Relative % composition in bile: β-MCA” value is 5.9%. In addition, where the note is “80-90 mins”, the “Relative % composition in bile: CA” value turned out to be 9.9%, the “Relative % composition in bile: CDCA” value is on record as 0.7%, the “Relative % composition in bile: DCA” value is 1.2% and the “Relative % composition in bile: MCA” value is reported as 0.8%. Besides, under “80-90 mins”, the “Relative % composition in bile: UDCA” value came out at 78.8%, the “Relative % composition in bile: α-MCA” value came to 1.3% and the “Relative % composition in bile: β-MCA” value is listed as 7.4%.

Consider `C[C@H](CCC(=O)O)[C@H]1CC[C@H]2[C@@H]3[C@@H](OS(=O)(=O)O)C[C@@H]4C[C@H](OS(=O)(=O)O)CC[C@]4(C)[C@H]3CC[C@]12C` [UDCA-DS, ursodeoxycholic acid 3,7-disulfate], for which the “Further hydroxylation (in words)” value is “neither UDCA-7S nor UDCA-disulfatewere hydroxylated”. In addition, under “20-30 mins”, the “Relative % composition in bile: CA” value was found to be 24.5%, the “Relative % composition in bile: CDCA” value worked out at 2.5%, the “Relative % composition in bile: DCA” value was determined as 2.1% and the “Relative % composition in bile: MCA” value is listed as 3.2%. In addition, under “20-30 mins”, the “Relative % composition in bile: UDCA” value came to 54.6%, the “Relative % composition in bile: α-MCA” value was 3.4% and the “Relative % composition in bile: β-MCA” value was 9.7%. Further, for the setting “50-60 mins”, the “Relative % composition in bile: CA” value is reported as 15.3%, the “Relative % composition in bile: CDCA” value is 0.7%, the “Relative % composition in bile: DCA” value came out at 1.2% and the “Relative % composition in bile: MCA” value stood at 2.2%. Also, for the setting “50-60 mins”, the “Relative % composition in bile: UDCA” value stood at 70.7%, the “Relative % composition in bile: α-MCA” value came to 2.2% and the “Relative % composition in bile: β-MCA” value was 6.7%. For the setting “80-90 mins”, the “Relative % composition in bile: CA” value was 10.6%, the “Relative % composition in bile: CDCA” value was 0.9%, the “Relative % composition in bile: MCA” value was 1.4% and the “Relative % composition in bile: UDCA” value came to 79.1%. Besides, under “80-90 mins”, the “Relative % composition in bile: α-MCA” value is recorded as 2.6% and the “Relative % composition in bile: β-MCA” value worked out at 6.5%.

Take `C[C@H](CCC(=O)O)[C@H]1CC[C@H]2[C@@H]3[C@@H](O)C[C@@H]4C[C@H](O)CC[C@]4(C)[C@H]3CC[C@]12C` [UDCA, 3 alpha, 7 beta-dihydroxy-5 beta-cholan-24oic acid, reference compound]: the “Further hydroxylation (in words)” value was “metabolized by further hydroxylation, most probably in the side-chain”. In addition, where the note is “20-30 mins”, the “Relative % composition in bile: CA” value turned out to be 49.0%, the “Relative % composition in bile: CDCA” value worked out at 3.0%, the “Relative % composition in bile: DCA” value is recorded as 1.0% and the “Relative % composition in bile: MCA” value is recorded as 1.0%. For the same compound, for the setting “20-30 mins”, the “Relative % composition in bile: UDCA” value is recorded as 51.9%, the “Relative % composition in bile: others” value stood at 14.6%, the “Relative % composition in bile: α-MCA” value is reported as 4.3% and the “Relative % composition in bile: β-MCA” value is reported as 17.2%. Besides, under “50-60 mins”, the “Relative % composition in bile: CA” value is reported as 21.4%, the “Relative % composition in bile: CDCA” value is on record as 2.5%, the “Relative % composition in bile: DCA” value was found to be 0.5% and the “Relative % composition in bile: MCA” value was 0.5%. Further, under “50-60 mins”, the “Relative % composition in bile: UDCA” value was 65.9%, the “Relative % composition in bile: others” value turned out to be 13.7%, the “Relative % composition in bile: α-MCA” value turned out to be 3.9% and the “Relative % composition in bile: β-MCA” value was found to be 12.6%. Under “80-90 mins”, the “Relative % composition in bile: CA” value came out at 9.8%, the “Relative % composition in bile: CDCA” value amounted to 1.5%, the “Relative % composition in bile: DCA” value is 0.7% and the “Relative % composition in bile: UDCA” value is reported as 79.5%. Under “80-90 mins”, the “Relative % composition in bile: others” value amounted to 11.9%, the “Relative % composition in bile: α-MCA” value stood at 6.4% and the “Relative % composition in bile: β-MCA” value worked out at 9.9%.

Take `C[C@H](CCC(=O)O)[C@H]1CC[C@H]2[C@@H]3[C@@H](O)C[C@@H]4C[C@H](OS(=O)(=O)O)CC[C@]4(C)[C@H]3CC[C@]12C` [UDCA-3S, ursodeoxycholic acid 3-sulfate]: the “Further hydroxylation (in words)” value is recorded as “metabolized by further hydroxylation, most probably in the side-chain”. Under “20-30 mins”, the “Relative % composition in bile: CA” value is reported as 36.0%, the “Relative % composition in bile: CDCA” value came to 4.6%, the “Relative % composition in bile: DCA” value is 2.5% and the “Relative % composition in bile: MCA” value was 4.9%. For the same compound, under “20-30 mins”, the “Relative % composition in bile: UDCA” value came out at 33.3%, the “Relative % composition in bile: others” value is listed as 5.2%, the “Relative % composition in bile: α-MCA” value was 6.2% and the “Relative % composition in bile: β-MCA” value came out at 12.4%. Moreover, where the note is “50-60 mins”, the “Relative % composition in bile: CA” value is reported as 14.9%, the “Relative % composition in bile: CDCA” value was found to be 1.9%, the “Relative % composition in bile: DCA” value turned out to be 1.0% and the “Relative % composition in bile: MCA” value is 1.5%. Also, for the setting “50-60 mins”, the “Relative % composition in bile: UDCA” value is 70.6%, the “Relative % composition in bile: others” value came out at 11.5%, the “Relative % composition in bile: α-MCA” value turned out to be 2.7% and the “Relative % composition in bile: β-MCA” value is listed as 7.4%. Under “80-90 mins”, the “Relative % composition in bile: CA” value worked out at 18.2%, the “Relative % composition in bile: CDCA” value is listed as 2.5%, the “Relative % composition in bile: DCA” value turned out to be 1.3% and the “Relative % composition in bile: MCA” value was 2.0%. For the setting “80-90 mins”, the “Relative % composition in bile: UDCA” value was 67.7%, the “Relative % composition in bile: others” value is reported as 11.2%, the “Relative % composition in bile: α-MCA” value stood at 3.0% and the “Relative % composition in bile: β-MCA” value came to 5.2%.

(Values after US5763435A, “Sulfate conjugates of ursodeoxycholic acid, and their beneficial use in inflammatory disorders” (priority 1995, dated 1998).)
